Test results as given in US6770597B2, “Benzohydrazide derivatives as herbicides and desiccant compositions containing them” (Ishihara Sangyo Kaisha, Ltd., priority 2002, dated 2004).

Columns and labels:
Assay type in all cases: in vivo
[1] = tested on: barnyardgrass (Echinochloa crus-galli, ECHCG); experiment: Greenhouse herbicide screen, post-emerge application, phytotoxicity rating; settings: POST emergent, 14 days after application, scale 0-100
Summary of the method: (§1)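 Phytotoxicity read at 14 days on a 0–100 visual scale. Plants were treated either pre-emergence, one day after planting in sandy loam, or post-emergence at about 2–3 leaves, with acetone sprays at 15–1000 g ai/ha.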

[2] = tested on: cocklebur (Xanthium strumarium, XANST); experiment: as above; settings: POST emergent, 14 days after application, scale 0-100
Summary of the method: as §1

[3] = tested on: common ragweed (Ambrosia artemisiifolia L., AMBEL); experiment: as above; settings: POST emergent, 14 days after application, scale 0-100
Summary of the method: as §1

[4] = tested on: green foxtail (Setaria viridis, SETVI); experiment: as above; settings: POST emergent, 14 days after application, scale 0-100
Summary of the method: as §1

[5] = tested on: ivyleaf morningglory (Ipomoea hederacea, IPOHE); experiment: as above; settings: POST emergent, 14 days after application, scale 0-100
Summary of the method: as §1

[6] = tested on: johnsongrass (Sorghum halepense, SORHA); experiment: as above; settings: POST emergent, 14 days after application, scale 0-100
Summary of the method: as §1

[7] = tested on: lambsquarters (Chenopodium album, CHEAL); experiment: as above; settings: POST emergent, 14 days after application, scale 0-100
Summary of the method: as §1

[8] = tested on: large crabgrass (Digitaria sanguinalis, DIGSA); experiment: as above; settings: POST emergent, 14 days after application, scale 0-100
Summary of the method: as §1

[9] = tested on: redroot pigweed (Amaranthus retrofiexus, AMARE); experiment: as above; settings: POST emergent, 14 days after application
Summary of the method: as §1

[10] = tested on: sicklepod (Cassia obtusifolia, CASOB); experiment: as above; settings: POST emergent, 14 days after application, scale 0-100
Summary of the method: as §1

[11] = tested on: velvetleaf (Abutilon theophrasti, ABUTH); experiment: as above; settings: POST emergent, 14 days after application, scale 0-100
Summary of the method: as §1

[12] = tested on: field corn (Zea mays L., var. Dekalb 535, CORN); experiment: Greenhouse herbicide screen, post-emerge application, crop damage rating; settings: POST emergent, 14 days after application, scale 0-100
Summary of the method: as §1

[13] = tested on: upland rice (Oryza sp., var.Cocodrie, RICE); experiment: as above; settings: POST emergent, 14 days after application, scale 0-100
Summary of the method: as §1

[14] = tested on: barnyardgrass (Echinochloa crus-galli, ECHCG); experiment: Greenhouse herbicide screen, pre-emerge application, phytotoxicity rating; settings: PRE emergent, 14 days after application, rating scale 0-100
Summary of the method: as §1

[15] = tested on: cocklebur (Xanthium strumarium, XANST); experiment: as above; settings: PRE emergent, 14 days after application, rating scale 0-100
Summary of the method: as §1

[16] = tested on: common ragweed (Ambrosia artemisiifolia L., AMBEL); experiment: as above; settings: PRE emergent, 14 days after application, rating scale 0-100
Summary of the method: as §1

[17] = tested on: green foxtail (Setaria viridis, SETVI); experiment: as above; settings: PRE emergent, 14 days after application, rating scale 0-100
Summary of the method: as §1

[18] = tested on: ivyleaf morningglory (Ipomoea hederacea, IPOHE); experiment: as above; settings: PRE emergent, 14 days after application, rating scale 0-100
Summary of the method: as §1

[19] = tested on: johnsongrass (Sorghum halepense, SORHA); experiment: as above; settings: PRE emergent, 14 days after application, rating scale 0-100
Summary of the method: as §1

[20] = tested on: lambsquarters (Chenopodium album, CHEAL); experiment: as above; settings: PRE emergent, 14 days after application, rating scale 0-100
Summary of the method: as §1

[21] = tested on: large crabgrass (Digitaria sanguinalis, DIGSA); experiment: as above; settings: PRE emergent, 14 days after application, rating scale 0-100
Summary of the method: as §1

[22] = tested on: redroot pigweed (Amaranthus retrofiexus, AMARE); experiment: as above; settings: PRE emergent, 14 days after application, rating scale 0-100
Summary of the method: as §1

[23] = tested on: sicklepod (Cassia obtusifolia, CASOB); experiment: as above; settings: PRE emergent, 14 days after application, rating scale 0-100
Summary of the method: as §1

[24] = tested on: velvetleaf (Abutilon theophrasti, ABUTH); experiment: as above; settings: PRE emergent, 14 days after application, rating scale 0-100
Summary of the method: as §1

[25] = tested on: field corn (Zea mays L., var. Dekalb 535, CORN); experiment: Greenhouse herbicide screen, pre-emerge application, crop damage rating; settings: PRE emergent, 14 days after application, rating scale 0-100
Summary of the method: as §1

[26] = tested on: upland rice (Oryza sp., var.Cocodrie, RICE); experiment: as above; settings: PRE emergent, 14 days after application, rating scale 0-100
Summary of the method: as §1

[27] = 63 g ai/ha, scale 0-100 (0 no damage, 100 complete death)

CC(=NN=C(OC(=O)C(Cl)Cl)c1cc(-n2c(=O)cc(C(F)(F)F)n(C)c2=O)c(F)cc1Cl)C(C)(C)C [Compound 5-4]
phytotoxicity rating ECHCO ([1]; 63 g ai/ha): 90
phytotoxicity rating XANST ([2]; 63 g ai/ha): 65
phytotoxicity rating AMBEL ([3]; 63 g ai/ha): 95
phytotoxicity rating SETVI ([4]; 63 g ai/ha): 55
phytotoxicity rating IPOHE ([5]; 63 g ai/ha): 100
phytotoxicity rating SORHA ([6]; 63 g ai/ha): 30
phytotoxicity rating CHEAL ([7]; 63 g ai/ha): 70
phytotoxicity rating DIGSA ([8]; 63 g ai/ha): 75
phytotoxicity rating AMARE [9, 27]: 95
phytotoxicity rating CASOB ([10]; 63 g ai/ha): 50
phytotoxicity rating ABUTH ([11]; 63 g ai/ha): 99
crop damage rating CORN ([12]; 63 g ai/ha): 60
crop damage rating RICE ([13]; 63 g ai/ha): 10
phytotoxicity rating ECHCG ([14]; 63 g ai/ha): 40
phytotoxicity rating XANST ([15]; 63 g ai/ha): 40
phytotoxicity rating AMBEL ([16]; 63 g ai/ha): 70
phytotoxicity rating SETVI ([17]; 63 g ai/ha): 50
phytotoxicity rating IPOHE ([18]; 63 g ai/ha): 100
phytotoxicity rating SORHA ([19]; 63 g ai/ha): 85
phytotoxicity rating CHEAL ([20]; 63 g ai/ha): 100
phytotoxicity rating DIGSA ([21]; 63 g ai/ha): 55
phytotoxicity rating AMARE ([22]; 63 g ai/ha): 100
phytotoxicity rating CASOB ([23]; 63 g ai/ha): 30
phytotoxicity rating ABUTH ([24]; 63 g ai/ha): 100
crop damage rating CORN ([25]; 63 g ai/ha): 10
crop damage rating RICE ([26]; 63 g ai/ha): 55

C#CCOC(=NN=C(C(C)(C)C)C(C)(C)C)c1cc(-n2c(=O)cc(C(F)(F)F)n(C)c2=O)c(F)cc1Cl [Compound 5-7]
phytotoxicity rating ECHCO ([1]; 63 g ai/ha): 35
phytotoxicity rating ECHCO ([1]; 250 g ai/ha): 55
phytotoxicity rating XANST ([2]; 63 g ai/ha): 0
phytotoxicity rating XANST ([2]; 250 g ai/ha): 55
phytotoxicity rating AMBEL ([3]; 63 g ai/ha): 50
phytotoxicity rating AMBEL ([3]; 250 g ai/ha): 55
phytotoxicity rating SETVI ([4]; 63 g ai/ha): 50
phytotoxicity rating SETVI ([4]; 250 g ai/ha): 55
phytotoxicity rating IPOHE ([5]; 63 g ai/ha): 60
phytotoxicity rating IPOHE ([5]; 250 g ai/ha): 70
phytotoxicity rating SORHA ([6]; 63 g ai/ha): 0
phytotoxicity rating SORHA ([6]; 250 g ai/ha): 15
phytotoxicity rating CHEAL ([7]; 63 g ai/ha): 70
phytotoxicity rating CHEAL ([7]; 250 g ai/ha): 85
phytotoxicity rating DIGSA ([8]; 63 g ai/ha): 0
phytotoxicity rating DIGSA ([8]; 250 g ai/ha): 50
phytotoxicity rating AMARE [9, 27]: 70
phytotoxicity rating AMARE ([9]; 250 g ai/ha, scale 0-100): 99
phytotoxicity rating CASOB ([10]; 63 g ai/ha): 50
phytotoxicity rating CASOB ([10]; 250 g ai/ha): 50
phytotoxicity rating ABUTH ([11]; 63 g ai/ha): 30
phytotoxicity rating ABUTH ([11]; 250 g ai/ha): 70
crop damage rating CORN ([12]; 63 g ai/ha): 0
crop damage rating CORN ([12]; 250 g ai/ha): 15
crop damage rating RICE ([13]; 63 g ai/ha): 10
crop damage rating RICE ([13]; 250 g ai/ha): 0
phytotoxicity rating ECHCG ([14]; 63 g ai/ha): 0
phytotoxicity rating ECHCG ([14]; 250 g ai/ha): 0
phytotoxicity rating XANST ([15]; 63 g ai/ha): 0
phytotoxicity rating XANST ([15]; 250 g ai/ha): 0
phytotoxicity rating AMBEL ([16]; 63 g ai/ha): 0
phytotoxicity rating AMBEL ([16]; 250 g ai/ha): 50
phytotoxicity rating SETVI ([17]; 63 g ai/ha): 30
phytotoxicity rating SETVI ([17]; 250 g ai/ha): 80
phytotoxicity rating IPOHE ([18]; 63 g ai/ha): 0
phytotoxicity rating IPOHE ([18]; 250 g ai/ha): 30
phytotoxicity rating SORHA ([19]; 63 g ai/ha): 15
phytotoxicity rating SORHA ([19]; 250 g ai/ha): 20
phytotoxicity rating CHEAL ([20]; 63 g ai/ha): 100
phytotoxicity rating CHEAL ([20]; 250 g ai/ha): 100
phytotoxicity rating DIGSA ([21]; 63 g ai/ha): 0
phytotoxicity rating DIGSA ([21]; 250 g ai/ha): 50
phytotoxicity rating AMARE ([22]; 63 g ai/ha): 60
phytotoxicity rating AMARE ([22]; 250 g ai/ha): 100
phytotoxicity rating CASOB ([23]; 63 g ai/ha): 0
phytotoxicity rating CASOB ([23]; 250 g ai/ha): 50
phytotoxicity rating ABUTH ([24]; 63 g ai/ha): 50
phytotoxicity rating ABUTH ([24]; 250 g ai/ha): 99
crop damage rating CORN ([25]; 63 g ai/ha): 0
crop damage rating CORN ([25]; 250 g ai/ha): 10
crop damage rating RICE ([26]; 63 g ai/ha): 0
crop damage rating RICE ([26]; 250 g ai/ha): 0
